This note sets out measurements from article PMC8371461 (Frontiers in Pharmacology, 2021).

Holding throughout (experiment): kinome scan
What all share (assay type): binding

One assay addresses T1, ERK2 (Homo sapiens, UniProt P28482).
T1 construct: purchased DiscoverX (KINOMEscan)
As to conditions: 10 µM.

The next assay has as its target T2, PIK3CG (Homo sapiens, UniProt P48736).
T2 construct: purchased DiscoverX (KINOMEscan)

The target of a further assay is T3, STK35 (Homo sapiens, UniProt Q8TDR2).
T3 construct: purchased DiscoverX (KINOMEscan)
The conditions noted are these: 10 µM.

The target of the next assay is T4, ROS1 (Homo sapiens, UniProt P08922).
T4 construct: purchased DiscoverX (KINOMEscan)
The conditions noted are these: 10 µM.

Another assay has as its target T5, FLT3(R834Q) (Homo sapiens, UniProt P36888, R834Q).
T5 construct: purchased DiscoverX (KINOMEscan)
As to conditions: 10 µM.

The target of a further assay is T6, CSNK1G2 (Homo sapiens, UniProt P78368).
T6 construct: purchased DiscoverX (KINOMEscan)
As to conditions: 10 µM.

The target in the next assay is T7, YANK1 (Homo sapiens, UniProt Q8WU08).
T7 construct: purchased DiscoverX (KINOMEscan)
The conditions noted are these: 10 µM.

A further assay concerns the target T8, NEK11 (Homo sapiens, UniProt Q8NG66).
T8 construct: purchased DiscoverX (KINOMEscan)
As to conditions: 10 µM.

The target in a further assay is T9, ADCK4 (Homo sapiens, UniProt Q96D53).
T9 construct: purchased DiscoverX (KINOMEscan)
As to conditions: 10 µM.

Another assay concerns the target T10, ANKK1 (Homo sapiens, UniProt Q8NFD2).
T10 construct: purchased DiscoverX (KINOMEscan)
T10 sequence (Q8NFD2 1-765): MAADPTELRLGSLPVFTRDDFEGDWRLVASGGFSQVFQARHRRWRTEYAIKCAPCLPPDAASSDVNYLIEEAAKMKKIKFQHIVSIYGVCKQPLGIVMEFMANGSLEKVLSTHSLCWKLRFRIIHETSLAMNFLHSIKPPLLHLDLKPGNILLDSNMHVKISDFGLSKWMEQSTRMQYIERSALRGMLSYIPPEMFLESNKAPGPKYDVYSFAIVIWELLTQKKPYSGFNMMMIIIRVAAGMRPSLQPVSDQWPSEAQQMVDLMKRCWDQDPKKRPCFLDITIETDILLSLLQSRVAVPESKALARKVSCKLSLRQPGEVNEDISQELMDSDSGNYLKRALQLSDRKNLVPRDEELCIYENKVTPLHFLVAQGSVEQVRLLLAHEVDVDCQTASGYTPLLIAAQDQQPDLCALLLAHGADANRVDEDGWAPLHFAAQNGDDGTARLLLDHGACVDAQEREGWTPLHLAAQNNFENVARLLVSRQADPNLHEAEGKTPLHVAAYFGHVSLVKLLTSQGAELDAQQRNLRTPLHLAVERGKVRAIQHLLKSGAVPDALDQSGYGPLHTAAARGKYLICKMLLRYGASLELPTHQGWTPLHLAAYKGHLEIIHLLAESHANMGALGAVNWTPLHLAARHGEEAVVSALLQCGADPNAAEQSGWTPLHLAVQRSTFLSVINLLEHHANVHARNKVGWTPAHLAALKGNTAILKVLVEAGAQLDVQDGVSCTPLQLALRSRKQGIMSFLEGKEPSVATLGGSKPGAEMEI

For another assay, the target named is T11, BRAF(V600E) (Homo sapiens, UniProt P15056, V600E).
T11 construct: purchased DiscoverX (KINOMEscan)
As to conditions: 10 µM.

A further assay has as its target T12, IKK-alpha (Homo sapiens, UniProt O15111).
T12 construct: purchased DiscoverX (KINOMEscan)
As to conditions: 10 µM.

The next assay has as its target T13, GAK (Homo sapiens, UniProt O14976).
T13 construct: T7 phage fusion (kinase-tagged phage); purchased DiscoverX; host or cells: BL21-derived E. coli (T7 phage)
T13 sequence (O14976 1-1311): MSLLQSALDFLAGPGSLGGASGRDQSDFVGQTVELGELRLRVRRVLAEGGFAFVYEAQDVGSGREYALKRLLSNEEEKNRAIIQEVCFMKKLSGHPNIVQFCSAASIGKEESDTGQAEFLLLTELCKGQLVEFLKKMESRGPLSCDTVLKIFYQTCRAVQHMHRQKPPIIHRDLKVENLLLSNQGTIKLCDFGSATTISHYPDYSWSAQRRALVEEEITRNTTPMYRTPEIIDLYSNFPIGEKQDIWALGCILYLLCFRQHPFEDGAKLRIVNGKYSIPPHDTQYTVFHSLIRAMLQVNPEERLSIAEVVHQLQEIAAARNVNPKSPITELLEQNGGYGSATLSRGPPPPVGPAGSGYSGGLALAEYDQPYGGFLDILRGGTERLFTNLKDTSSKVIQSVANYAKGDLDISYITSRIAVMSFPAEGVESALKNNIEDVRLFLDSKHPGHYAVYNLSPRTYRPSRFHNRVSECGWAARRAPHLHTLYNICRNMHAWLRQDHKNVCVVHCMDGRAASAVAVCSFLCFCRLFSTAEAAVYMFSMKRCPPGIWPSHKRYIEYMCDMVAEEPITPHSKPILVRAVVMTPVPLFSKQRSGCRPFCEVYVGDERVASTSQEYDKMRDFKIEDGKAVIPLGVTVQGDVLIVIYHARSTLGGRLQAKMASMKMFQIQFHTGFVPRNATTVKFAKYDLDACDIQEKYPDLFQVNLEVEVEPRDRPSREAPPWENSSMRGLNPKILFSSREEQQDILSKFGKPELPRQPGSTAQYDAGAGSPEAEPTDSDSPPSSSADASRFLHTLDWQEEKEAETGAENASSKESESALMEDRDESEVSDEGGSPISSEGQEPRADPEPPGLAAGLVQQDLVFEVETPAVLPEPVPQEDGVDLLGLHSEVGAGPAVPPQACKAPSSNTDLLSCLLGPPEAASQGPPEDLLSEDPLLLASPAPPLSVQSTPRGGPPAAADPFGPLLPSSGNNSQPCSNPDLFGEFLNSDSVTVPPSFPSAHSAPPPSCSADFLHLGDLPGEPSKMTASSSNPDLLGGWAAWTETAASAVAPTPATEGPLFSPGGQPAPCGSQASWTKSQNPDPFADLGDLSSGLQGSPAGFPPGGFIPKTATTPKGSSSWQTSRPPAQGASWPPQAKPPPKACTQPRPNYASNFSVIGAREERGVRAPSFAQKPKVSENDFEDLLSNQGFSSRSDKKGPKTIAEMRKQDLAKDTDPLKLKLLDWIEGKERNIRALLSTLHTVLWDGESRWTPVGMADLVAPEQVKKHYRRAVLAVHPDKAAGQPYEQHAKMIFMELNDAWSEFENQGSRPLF

The next assay deals with T14, FRK (Homo sapiens, UniProt P42685).
T14 construct: purchased DiscoverX (KINOMEscan)
As to conditions: 10 µM.

Another assay has as its target T15, ROCK1 (Homo sapiens, UniProt Q13464).
T15 construct: purchased DiscoverX (KINOMEscan)
As to conditions: 10 µM.

T2 sequence (P48736 whole entry): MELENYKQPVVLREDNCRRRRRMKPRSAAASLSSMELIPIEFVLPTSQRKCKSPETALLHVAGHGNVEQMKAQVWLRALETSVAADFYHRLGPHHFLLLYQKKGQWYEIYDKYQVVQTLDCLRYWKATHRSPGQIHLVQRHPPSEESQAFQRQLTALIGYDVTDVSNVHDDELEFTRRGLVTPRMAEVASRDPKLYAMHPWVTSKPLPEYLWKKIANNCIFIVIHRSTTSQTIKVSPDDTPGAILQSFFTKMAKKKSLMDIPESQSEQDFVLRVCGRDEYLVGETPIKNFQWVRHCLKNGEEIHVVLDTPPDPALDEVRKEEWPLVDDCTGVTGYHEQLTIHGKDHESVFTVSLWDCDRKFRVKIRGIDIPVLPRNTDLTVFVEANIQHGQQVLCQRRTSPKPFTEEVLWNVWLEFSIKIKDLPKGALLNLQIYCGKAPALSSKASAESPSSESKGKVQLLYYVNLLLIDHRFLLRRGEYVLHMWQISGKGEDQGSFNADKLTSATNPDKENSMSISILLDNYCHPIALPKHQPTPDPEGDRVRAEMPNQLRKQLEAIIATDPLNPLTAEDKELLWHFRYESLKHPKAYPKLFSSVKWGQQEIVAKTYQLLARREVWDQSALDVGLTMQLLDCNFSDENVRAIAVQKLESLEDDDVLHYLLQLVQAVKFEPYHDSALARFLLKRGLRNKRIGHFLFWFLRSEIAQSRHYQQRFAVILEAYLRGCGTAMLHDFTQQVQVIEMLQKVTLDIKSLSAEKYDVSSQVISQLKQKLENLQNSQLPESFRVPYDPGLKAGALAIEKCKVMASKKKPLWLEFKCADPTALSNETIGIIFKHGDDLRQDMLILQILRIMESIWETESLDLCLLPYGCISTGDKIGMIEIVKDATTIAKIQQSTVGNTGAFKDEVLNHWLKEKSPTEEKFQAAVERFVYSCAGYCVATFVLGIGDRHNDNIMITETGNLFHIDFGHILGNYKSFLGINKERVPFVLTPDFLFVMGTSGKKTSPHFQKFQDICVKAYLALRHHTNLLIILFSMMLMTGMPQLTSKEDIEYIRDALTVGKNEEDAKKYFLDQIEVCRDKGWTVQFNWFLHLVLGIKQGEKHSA
T7 sequence (Q8WU08 whole entry): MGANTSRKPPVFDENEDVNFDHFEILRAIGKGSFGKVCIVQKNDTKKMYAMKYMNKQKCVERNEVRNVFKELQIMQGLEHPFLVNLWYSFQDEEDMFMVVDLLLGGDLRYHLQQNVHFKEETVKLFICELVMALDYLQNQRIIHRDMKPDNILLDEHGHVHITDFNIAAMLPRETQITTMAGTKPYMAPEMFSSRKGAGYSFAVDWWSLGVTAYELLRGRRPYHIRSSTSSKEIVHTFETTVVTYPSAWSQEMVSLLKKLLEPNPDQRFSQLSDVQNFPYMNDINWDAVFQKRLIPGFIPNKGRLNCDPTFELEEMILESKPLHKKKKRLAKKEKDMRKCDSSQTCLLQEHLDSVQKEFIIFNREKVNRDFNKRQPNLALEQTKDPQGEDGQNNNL
T3 sequence (Q8TDR2 whole entry): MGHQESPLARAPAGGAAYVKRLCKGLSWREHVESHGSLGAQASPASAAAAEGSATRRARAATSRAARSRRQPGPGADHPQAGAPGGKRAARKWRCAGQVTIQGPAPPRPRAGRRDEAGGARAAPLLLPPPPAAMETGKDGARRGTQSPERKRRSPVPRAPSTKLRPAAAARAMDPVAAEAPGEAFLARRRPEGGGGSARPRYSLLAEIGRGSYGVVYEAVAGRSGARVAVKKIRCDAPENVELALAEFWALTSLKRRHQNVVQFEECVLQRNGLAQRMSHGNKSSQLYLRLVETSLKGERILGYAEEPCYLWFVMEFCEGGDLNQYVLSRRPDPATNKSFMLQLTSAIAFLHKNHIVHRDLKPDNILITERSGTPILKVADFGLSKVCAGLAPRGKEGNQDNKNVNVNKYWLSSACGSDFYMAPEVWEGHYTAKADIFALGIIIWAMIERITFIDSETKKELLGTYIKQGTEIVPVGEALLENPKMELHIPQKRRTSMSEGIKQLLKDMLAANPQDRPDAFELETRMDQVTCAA
T12 sequence (O15111 whole entry): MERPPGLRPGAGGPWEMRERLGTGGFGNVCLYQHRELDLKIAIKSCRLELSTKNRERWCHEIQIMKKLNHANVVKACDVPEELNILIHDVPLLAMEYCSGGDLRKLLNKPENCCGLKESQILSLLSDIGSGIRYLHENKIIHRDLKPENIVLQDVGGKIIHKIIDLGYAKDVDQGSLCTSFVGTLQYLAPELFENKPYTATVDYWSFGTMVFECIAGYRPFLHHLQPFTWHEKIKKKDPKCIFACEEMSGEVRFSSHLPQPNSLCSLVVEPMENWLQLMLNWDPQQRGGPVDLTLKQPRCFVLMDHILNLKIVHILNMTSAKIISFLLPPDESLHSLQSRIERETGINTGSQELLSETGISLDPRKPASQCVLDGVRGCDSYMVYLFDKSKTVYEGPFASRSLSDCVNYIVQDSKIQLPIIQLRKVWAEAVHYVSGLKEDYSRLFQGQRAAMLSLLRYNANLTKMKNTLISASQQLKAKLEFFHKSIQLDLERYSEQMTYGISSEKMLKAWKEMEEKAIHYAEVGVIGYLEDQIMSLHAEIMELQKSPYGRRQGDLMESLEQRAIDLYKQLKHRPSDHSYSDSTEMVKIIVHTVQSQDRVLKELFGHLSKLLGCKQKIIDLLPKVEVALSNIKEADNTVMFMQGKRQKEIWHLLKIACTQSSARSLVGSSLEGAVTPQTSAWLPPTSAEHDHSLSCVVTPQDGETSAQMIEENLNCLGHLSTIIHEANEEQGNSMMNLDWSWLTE
T8 sequence (Q8NG66 whole entry): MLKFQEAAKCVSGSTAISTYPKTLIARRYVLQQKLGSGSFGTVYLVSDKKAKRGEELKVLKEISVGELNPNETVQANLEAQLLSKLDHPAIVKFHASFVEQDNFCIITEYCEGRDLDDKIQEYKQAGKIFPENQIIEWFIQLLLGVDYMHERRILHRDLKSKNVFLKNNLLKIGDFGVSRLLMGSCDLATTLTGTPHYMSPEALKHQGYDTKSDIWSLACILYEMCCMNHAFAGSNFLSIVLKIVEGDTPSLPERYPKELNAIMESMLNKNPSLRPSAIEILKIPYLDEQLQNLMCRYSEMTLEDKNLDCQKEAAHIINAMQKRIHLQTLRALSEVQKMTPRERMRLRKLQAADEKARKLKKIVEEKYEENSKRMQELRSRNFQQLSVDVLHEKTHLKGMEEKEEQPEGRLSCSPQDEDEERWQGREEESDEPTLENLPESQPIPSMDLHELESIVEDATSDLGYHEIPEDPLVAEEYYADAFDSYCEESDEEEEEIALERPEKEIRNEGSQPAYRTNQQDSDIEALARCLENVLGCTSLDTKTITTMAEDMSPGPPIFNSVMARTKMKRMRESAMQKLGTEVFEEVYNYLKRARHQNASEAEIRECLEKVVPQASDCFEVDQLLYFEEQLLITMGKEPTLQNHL
T15 sequence (Q13464 whole entry): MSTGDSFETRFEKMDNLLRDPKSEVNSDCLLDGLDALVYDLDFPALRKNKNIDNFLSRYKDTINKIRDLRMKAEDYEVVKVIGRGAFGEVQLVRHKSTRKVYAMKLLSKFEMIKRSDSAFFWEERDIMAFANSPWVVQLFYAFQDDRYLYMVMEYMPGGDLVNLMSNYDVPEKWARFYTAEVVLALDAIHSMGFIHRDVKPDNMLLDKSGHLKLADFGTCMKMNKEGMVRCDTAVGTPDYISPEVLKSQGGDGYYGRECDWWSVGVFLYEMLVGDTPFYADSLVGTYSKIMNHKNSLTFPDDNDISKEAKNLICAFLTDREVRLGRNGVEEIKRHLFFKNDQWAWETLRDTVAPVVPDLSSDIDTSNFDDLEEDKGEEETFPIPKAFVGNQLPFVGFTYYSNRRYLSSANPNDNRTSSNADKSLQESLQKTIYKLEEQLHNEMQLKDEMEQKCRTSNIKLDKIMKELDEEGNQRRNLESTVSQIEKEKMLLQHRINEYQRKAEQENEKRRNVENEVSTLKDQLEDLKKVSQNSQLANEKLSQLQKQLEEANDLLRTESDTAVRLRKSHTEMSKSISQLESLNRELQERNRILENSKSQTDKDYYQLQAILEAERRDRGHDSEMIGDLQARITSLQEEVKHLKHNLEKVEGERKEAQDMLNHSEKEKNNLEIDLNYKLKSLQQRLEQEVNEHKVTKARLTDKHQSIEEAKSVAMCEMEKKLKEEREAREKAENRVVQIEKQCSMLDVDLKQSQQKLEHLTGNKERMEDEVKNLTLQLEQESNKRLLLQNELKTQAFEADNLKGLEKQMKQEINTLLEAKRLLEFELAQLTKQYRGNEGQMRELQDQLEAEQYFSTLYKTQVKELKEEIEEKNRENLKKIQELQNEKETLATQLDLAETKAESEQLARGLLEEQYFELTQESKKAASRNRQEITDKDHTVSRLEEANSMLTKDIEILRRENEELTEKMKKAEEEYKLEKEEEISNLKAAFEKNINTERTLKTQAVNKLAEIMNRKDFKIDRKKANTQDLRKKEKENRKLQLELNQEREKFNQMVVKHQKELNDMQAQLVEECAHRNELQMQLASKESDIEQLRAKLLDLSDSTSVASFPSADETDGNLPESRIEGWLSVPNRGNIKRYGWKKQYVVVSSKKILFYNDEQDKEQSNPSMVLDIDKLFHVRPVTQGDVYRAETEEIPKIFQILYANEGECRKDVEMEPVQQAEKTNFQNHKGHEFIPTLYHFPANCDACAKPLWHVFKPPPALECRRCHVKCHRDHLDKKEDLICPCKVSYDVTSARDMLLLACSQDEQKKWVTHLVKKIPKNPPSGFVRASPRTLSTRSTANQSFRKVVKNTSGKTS

As to `Nc1ccc(N=Nc2ccccc2)c(N)n1` [phenazopyridine, 2,6-diamino-3-(phenylazo)pyridine], the kinase inhibition on ERK2 amounted to 92; on STK35 it was 93; on ROS1, 100; on CSNK1G2, 82; on YANK1 it was 98; on NEK11 it was 100. The kinase inhibition was 90 on ADCK4, 92 on BRAF(V600E), 64 at IKK-alpha and 78 on ROCK1. Besides, the “percent of control (remaining binding)” value on PIK3CG (10 µM) worked out at 27. For the same compound, the remaining binding at 10 µM on PIK3CG (read-out: Kinome scan (% of control at 10 µM)) was 27%; at ANKK1 (read-out: % Of control), 18%; on GAK (read-out: % Of control), 16%. The “remaining binding (% of control)” value turned out to be 89 on FLT3(R834Q), 18 at ANKK1 (10 µM), 16 on GAK (10 µM) and 100 at FRK.
